Drawing on the supplement of paper PMC10307832, this text covers relative viability for 4 cell lines.

Holding throughout (test): relative viability (nuclei count vs DMSO), 5 days (fraction); higher = more cells survive
Compound in assay [1]: Cn1cncc1[C@@](N)(c1ccc(Cl)cc1)c1ccc2c(c1)c(-c1cccc(Cl)c1)cc(=O)n2C [Tipifarnib] + O=C(CCCCCCC(=O)Nc1ccccc1)NO [Vorinostat] (partner 1 µM)
In a few lines: (§1)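 Each reported value is a median over duplicate plates. It expresses relative viability: treated-well nuclei count divided by vehicle-well nuclei count. Lung cancer cell lines in 1536-well plates were dosed by pin tool a day after seeding, alone with one drug or with a fixed anchor-drug dose plus five library-drug doses (not always all listed) in √10 steps, and nuclei were counted after 5 days.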

Compound in assay [2]: Cn1cncc1[C@@](N)(c1ccc(Cl)cc1)c1ccc2c(c1)c(-c1cccc(Cl)c1)cc(=O)n2C [Tipifarnib] + CC(=O)c1c(C)c2cnc(Nc3ccc(N4CCNCC4)cn3)nc2n(C2CCCC2)c1=O [Palbociclib] (partner 0.5 µM)
In a few lines:
as §1

Compound in assay [3]: Cn1cncc1[C@@](N)(c1ccc(Cl)cc1)c1ccc2c(c1)c(-c1cccc(Cl)c1)cc(=O)n2C [Tipifarnib] + NC(=O)Nc1cc(-c2cccc(F)c2)sc1C(=O)N[C@H]1CCCNC1 [AZD7762] (partner 0.2 µM)
The method, boiled down:
as §1

Compound in assay [4]: Cn1cncc1[C@@](N)(c1ccc(Cl)cc1)c1ccc2c(c1)c(-c1cccc(Cl)c1)cc(=O)n2C [Tipifarnib] + C[C@@H](Oc1cc(-c2cnn(C3CCNCC3)c2)cnc1N)c1c(Cl)ccc(F)c1Cl [Crizotinib] (partner 1 µM)
The method, boiled down:
as §1

Regarding EPLC-272H, the relative viability worked out at 0.4 in assay [1] (first compound 0.01 µM); 0.457 in assay [1] (first compound 0.03162 µM); 0.371 in assay [1] (first compound 0.1 µM); 0.233 in assay [1] (first compound 0.3162 µM); 0.139 in assay [1] (first compound 1 µM); 0.358 in assay [2] (first compound 0.01 µM). Moreover, the relative viability in assay [2] (first compound 0.03162 µM) amounted to 0.265; in assay [2] (first compound 0.1 µM), 0.328; in assay [2] (first compound 0.3162 µM), 0.298; in assay [2] (first compound 1 µM), 0.263; in assay [3] (first compound 0.01 µM), 0.313; in assay [3] (first compound 0.03162 µM) it was 0.263. Further, the relative viability in assay [3] (first compound 0.1 µM) is 0.245; in assay [3] (first compound 0.3162 µM) it was 0.292; in assay [3] (first compound 1 µM), 0.118; in assay [4] (first compound 0.01 µM) it was 1; in assay [4] (first compound 0.03162 µM), 0.722; in assay [4] (first compound 0.1 µM) it was 0.766. Also, the relative viability in assay [4] (first compound 0.3162 µM) was found to be 0.64; in assay [4] (first compound 1 µM), 0.265.

In the case of H3255, the relative viability in assay [1] (first compound 0.01 µM) stood at 0.863; in assay [1] (first compound 0.03162 µM), 0.702; in assay [1] (first compound 0.1 µM), 0.671; in assay [1] (first compound 0.3162 µM) it was 0.576; in assay [1] (first compound 1 µM), 0.488; in assay [2] (first compound 0.01 µM), 0.331. The relative viability in assay [2] (first compound 0.03162 µM) is 0.276; in assay [2] (first compound 0.1 µM) it was 0.27; in assay [2] (first compound 0.3162 µM), 0.287; in assay [2] (first compound 1 µM), 0.258; in assay [3] (first compound 0.01 µM) it was 1.04; in assay [3] (first compound 0.03162 µM), 0.918. For the same cell line, the relative viability in assay [3] (first compound 0.1 µM) was determined as 0.736; in assay [3] (first compound 0.3162 µM), 0.559; in assay [3] (first compound 1 µM), 0.514; in assay [4] (first compound 0.01 µM), 0.834; in assay [4] (first compound 0.03162 µM), 0.9; in assay [4] (first compound 0.1 µM), 0.708. Moreover, the relative viability came to 0.519 in assay [4] (first compound 0.3162 µM) and 0.543 in assay [4] (first compound 1 µM).

Turning to HARA, the relative viability in assay [1] (first compound 0.01 µM) came out at 0.513; in assay [1] (first compound 0.03162 µM) it was 0.406; in assay [1] (first compound 0.1 µM), 0.364; in assay [1] (first compound 0.3162 µM), 0.325; in assay [1] (first compound 1 µM) it was 0.326; in assay [2] (first compound 0.01 µM), 0.32. The relative viability was found to be 0.32 in assay [2] (first compound 0.03162 µM); 0.238 in assay [2] (first compound 0.1 µM); 0.217 in assay [2] (first compound 0.3162 µM); 0.265 in assay [2] (first compound 1 µM); 0.239 in assay [3] (first compound 0.01 µM); 0.426 in assay [3] (first compound 0.03162 µM). The relative viability in assay [3] (first compound 0.1 µM) came out at 0.283; in assay [3] (first compound 0.3162 µM) it was 0.297; in assay [3] (first compound 1 µM) it was 0.166; in assay [4] (first compound 0.01 µM), 1.07; in assay [4] (first compound 0.03162 µM), 0.917; in assay [4] (first compound 0.1 µM), 1. In addition, the relative viability amounted to 1.01 in assay [4] (first compound 0.3162 µM) and 1.02 in assay [4] (first compound 1 µM).

With HCC-15, the relative viability turned out to be 0.833 in assay [1] (first compound 0.01 µM); 0.701 in assay [1] (first compound 0.03162 µM); 0.673 in assay [1] (first compound 0.1 µM); 0.589 in assay [1] (first compound 0.3162 µM); 0.53 in assay [1] (first compound 1 µM); 0.694 in assay [2] (first compound 0.01 µM). Further, the relative viability was determined as 0.653 in assay [2] (first compound 0.03162 µM); 0.566 in assay [2] (first compound 0.1 µM); 0.417 in assay [2] (first compound 0.3162 µM); 0.405 in assay [2] (first compound 1 µM); 1.12 in assay [3] (first compound 0.01 µM); 0.998 in assay [3] (first compound 0.03162 µM). Besides, the relative viability in assay [3] (first compound 0.1 µM) was 0.758; in assay [3] (first compound 0.3162 µM), 0.799; in assay [3] (first compound 1 µM), 0.236; in assay [4] (first compound 0.01 µM), 0.666; in assay [4] (first compound 0.03162 µM), 0.601; in assay [4] (first compound 0.1 µM) it was 0.396. In addition, the results for the relative viability in assay [4] (first compound 0.3162 µM) and in assay [4] (first compound 1 µM) were 0.41 and 0.448, respectively.
